Details of series [1]: method as in earlier work. To be noted: rodents; tissue-to-plasma distribution ratios (Kp) indicating substantial binding to tissue components; ref 16 (ARV-110), ref 17 (A947); cited from earlier work.
Series [2] in a line: Caco-2 A-B passive permeability with preincubation, transporter-inhibited. As to conditions: human, Caco-2, with 50 μM quinidine, 30 μM benzbromarone, 20 μM sulfasalazine; Figure 3A grouping; read-out: Passive Caco-2 cell permeability group (high, moderate or low). The class given is in vitro ADME. The method, then: (§1) Transepithelial transport of the compounds through a Caco-2 monolayer (ATCC, HTB-37) was determined in 14–18 days old monolayers in Costar 24-well cell culture cluster plates (polycarbonate membrane, 0.4 μm pore size). Chamber volumes were 200 and 800 μL on the apical and basolateral sides of the cell monolayers, respectively, and all incubations were performed with prewarmed buffers in an orbital shaking incubator at 480 rpm and 37 °C. Prior to the assay, cells were washed with HBSS supplemented with 25 mM HEPES (HBSS-HEPES), pH 7.4, to remove the culture medium. After 15 min of equilibration, the transepithelial electrical resistance (TEER) was determined to assess acceptance of the cell plates into the assay. A second measurement and a lucifer yellow leakage determination was carried out after performing all the transport experiments to monitor integrity of the cell monolayers throughout the study.
(§2) Before the permeability study, to minimize nonspecific binding of PROTACs to the cells and plates, the cells were preincubated with 10 μM compound solution on the apical (donor) side for 1 h, analogous to Muschong et al. Then, cells were washed twice with HBSS-MES pH 6.5 containing 1% BSA. Then, permeability in the absorptive direction (A–B, apical-to-basolateral) was studied over 120 min at a 10 μM test compound concentration. The compound solutions were freshly prepared from DMSO stock solutions diluted into HBSS supplemented with 25 mM MES, pH 6.5, containing efflux inhibitors (50 μM quinidine, 30 μM benzbromarone, and 20 μM sulfasalazine); the final solvent concentration was always 0.5%.
(§3) Samples from the donor side (10 μL) were drawn immediately after the addition of the test compound and after 45 and 120 min. The donor samples were diluted 1:10 in HBSS. From the receiver compartment, an amount of 100 μL was withdrawn after 45 and 120 min and replaced with fresh HBSS-HEPES, pH 7.4.
(§4) Upon completion of the study, all samples were quenched with 300 μL of acetonitrile and analyzed subsequently using UPLC/MS/MS. The permeability was determined as the appearance rate of the compound on the receiver side, in relation to donor concentration, according to eq 4 Papp=dQ/[(dt)(T)]×A/D where dQ/[(dt)(T)] is the slope of the permeation profile across the Caco-2 cell monolayers, A is the surface area of the Transwell insert (0.33 cm^2), and D is the concentration on the donor side. Following the permeability experiments, recovery from the donor and receiver compartments was calculated using eq 5 recovery(%)(0−120min)=CR120×VR+CR45×0.1+CD45×0.01+CD120×VD/D0×VD×100

In the next series the test system is Caco-2 monolayer. The series is described as above. The class given is in vitro ADME. To be noted: recovery from donor and receiver compartments, 0-120 min. As to the method: as §1, §2, §3, §4
Series [3] can be described thus: Equilibrium dialysis binding to HEK293 cell homogenate (fraction unbound). The class given is in vitro ADME. To be noted: human, pH 7.4; fraction unbound in HEK293 cell homogenate, 10 × 10^6 cells/mL, 0.1 μM, 4 h, 37 °C; read-out: fu,hom. The method, then: (§5) The unbound fraction of a selected series of PROTACs was determined through equilibrium dialysis against the cell homogenate. HEK293 cells (ATCC, Manassas, VA) were grown in Dulbecco’s modified Eagle’s medium (DMEM) supplemented with 10% fetal bovine serum (FBS) at 37 °C, 95% relative humidity, and 5% CO2. Cell pellets were harvested using 0.05% trypsin and centrifuged at 260g for 5 min. The cells were resuspended in Dulbecco’s phosphate buffer (DPBS), counted using a Luna II cell counter (Logos Biosystems, Anyang, South Korea) and centrifuged at 260g. The supernatant was discarded, and cell pellets were stored at −80 °C prior to cell homogenate preparation. On the day of the experiment, cell pellets were thawed and resuspended in Hank’s balanced salt solution (HBSS) buffered with 20 mM HEPES (pH 7.4) to a concentration of 10 × 10^6 cells/mL. The cell suspension was homogenized using ultrasonication for 10 s at 20% intensity while kept on ice.
(§6) Compound stability was assessed by adding the compound-spiked cell homogenate to an empty well in the dialysis cassette. At the end of the experiment, these concentrations were compared to identical control samples stored at 4 °C. Mass balance was calculated at the end of each experiment. Further, in all wells, two control compounds (atorvastatin and lopinavir) were included to ensure that the assay plate was functional. All compounds were tested in triplicate in one experiment. Compound 2 was only detected on the cell homogenate side, and thus, the concentration on the buffer side was set to half of the lower limit of quantification to allow calculation of an approximate cell homogenate binding.
(§7) Final samples were matrix matched by taking 1 part sample and 1 part blank cell homogenate or buffer. Proteins were precipitated using 1 part matrix matched sample and 3 parts acetonitrile supplemented with 0.3% formic acid (FA) and 5 nM verapamil (internal standard), and this was diluted 1:1 with Milli-Q prior to centrifugation at 2500g for 20 min. Compound concentrations in the supernatant were quantified using a reversed phase system with a Waters Acquity UPLC HSS T3 column (50 × 2.1 mm, 1.8 μm) in an Aquity UPLC connected to a Xevo TQ-XS mass spectrometer (Waters Corp., Milford, MA). The chromatographic run was done using solvent A (0.1% FA in Milli-Q) and solvent B (0.1% FA in acetonitrile Optima LC/MS grade (Fisher Scientific)) with isocratic conditions between 0 and 0.3 min (99.8% solvent A and 0.2% solvent B), a linear gradient between 0.3 and 1.3 min (from 0.2% to 95% solvent B), isocratic conditions between 1.3 and 1.8 min (95% solvent B), and equilibration back to start conditions between 1.8 and 2.3 min. Mass transitions, cone voltages, and collision energies can be found in Table S4.
On the technique in general: Equilibrium dialysis compares concentrations on both sides of a semipermeable membrane.

A further series has as its system HEK293 cell homogenate. The series is described as above. The class given is in vitro ADME. To be noted: equilibrium dialysis, HEK293 cell homogenate, 0.1 μM. The method, then: as §5, §6, §7

Structures are written as SMILES.

Regarding `N#Cc1ccc(O[C@H]2CC[C@H](NC(=O)c3ccc(N4CCC(CN5CCN(c6cc7c(cc6F)C(=O)N(C6CCC(=O)NC6=O)C7=O)CC5)CC4)nn3)CC2)cc1Cl` (some centres unmarked) [ARV-110], the tissue distribution result in series [1] was “widespread and extensive tissue distribution”.
Regarding `Cc1ncsc1-c1ccc(CNC(=O)[C@@H]2C[C@@H](O)CN2C(=O)[C@@H](NC(=O)COCCCCOc2ccc(-c3ccc(N4C(=S)N(c5ccc(C#N)c(C(F)(F)F)c5)C(=O)C4(C)C)cc3)cc2)C(C)(C)C)cc1` [Compound 2], the Papp A→B at 120 min, 10 μM in series [2] is below 5 nm/s. The “Papp Recovery (%) (0-120 min)” value in the series with Caco-2 monolayer is recorded as 87%. Also, the fraction unbound at 4 h, 0.1 μM in series [3] is 0.016. For the same molecule, the “fu,hom mass balance” value in the series with HEK293 cell homogenate was found to be 109%.
`Cc1ccc(C(=O)NCCCCc2cn(CCCC(=O)NCCCCNc3cccc4c3C(=O)N(C3CCC(=O)NC3=O)C4=O)nn2)cc1-n1c(C)cc(OCc2ccc(F)cc2F)c(Br)c1=O` (centres unmarked) [Compound 3]: in series [2], the Papp A→B at 120 min, 10 μM was below 5 nm/s. In the series with Caco-2 monolayer, the “Papp Recovery (%) (0-120 min)” value is 94%. For the same molecule, in series [3], the fraction unbound at 4 h, 0.1 μM came out at 0.24. Besides, in the series on HEK293 cell homogenate, the “fu,hom mass balance” value is 111%.
On to `CCCOc1cccc(Oc2cc3c(cc2NS(=O)(=O)c2cccc(C(=O)NCCOCCOCCOCC(=O)N[C@@H](C(=O)N4C[C@@H](O)C[C@@H]4C(=O)NCc4ccc(-c5scnc5C)cc4)C(C)(C)C)c2)n(C)c(=O)n3C)c1` [Compound 4], for which, in series [2], the Papp A→B at 120 min, 10 μM was in the range of 5 to 100 nm/s. Also, the “Papp Recovery (%) (0-120 min)” value in the series with Caco-2 monolayer was determined as 78%. In series [3], the fraction unbound at 4 h, 0.1 μM worked out at 0.2. For the same molecule, the “fu,hom mass balance” value in the series with HEK293 cell homogenate worked out at 66%.
In the case of `CC(=O)c1c(C)c2cnc(Nc3ccc(N4CCN(CCOCCOCCOCCNC(=O)COc5cccc6c5C(=O)N([C@H]5CCC(=O)NC5=O)C6=O)CC4)cn3)nc2n(C2CCCC2)c1=O` [Compound 5], the Papp A→B at 120 min, 10 μM in series [2] lay in the range of 5 to 100 nm/s. Moreover, the “Papp Recovery (%) (0-120 min)” value with Caco-2 monolayer is given as 84%. In addition, in series [3], the fraction unbound at 4 h, 0.1 μM was 0.396. Moreover, the “fu,hom mass balance” value with HEK293 cell homogenate was 76%.

Values taken from PMC12750995, “Conformational Dynamics in the Cell Membrane Interactions of Bispecific Targeted Degrader Therapeutics” (Journal of Medicinal Chemistry, 2025).
